{"source": "patent US5001158A", "about": "“Nitrosoureas compounds preparation thereof and utilization thereof in anticancerous” (Centre National de la Recherche Scientifique, priority 1990, dated 1991)", "key": {"[1]": {"tested_on": "Mammary adenocarcinoma TM2", "set-up": "key: N.S.: Not significant; .infin.: 50% more of the treated animals are cure", "details": "days 1, 5 and 9, cited from earlier work"}, "[2]": {"tested_on": "Lewis pulmonary carcinoma", "set-up": "key: N.S.: Not significant; .infin.: 50% more of the treated animals are cure", "details": "days 1, 5 and 9, cited from earlier work"}, "[3]": {"tested_on": "Leukemia L 1210", "set-up": "key: N.S.: Not significant; .infin.: 50% more of the treated animals are cure", "details": "days 1, 5 and 9, cited from earlier work"}, "[4]": {"tested_on": "Melanocarcinoma B 16", "set-up": "key: N.S.: Not significant; .infin.: 50% more of the treated animals are cure", "details": "days 1, 5 and 9, cited from earlier work"}, "[5]": {"tested_on": "Fibrosarcoma I.C.I.G. C1", "set-up": "key: N.S.: Not significant; .infin.: 50% more of the treated animals are cure", "details": "days 1, 5 and 9, cited from earlier work"}, "[6]": {"tested_on": "Carcinoma of the colon (colon 26)", "set-up": "key: N.S.: Not significant; .infin.: 50% more of the treated animals are cure", "details": "days 1, 5 and 9, cited from earlier work"}, "[7]": {"tested_on": "Ovarian M 555", "set-up": "key: N.S.: Not significant; .infin.: 50% more of the treated animals are cure", "details": "days 1, 5 and 9, cited from earlier work"}, "[8]": {"tested_on": "Glioma 26", "set-up": "key: N.S.: Not significant; .infin.: 50% more of the treated animals are cure", "details": "days 1, 5 and 9, cited from earlier work"}, "[9]": {"tested_on": "types of tumor listed in Table I", "details": "cited from earlier work"}, "[10]": {"tested_on": "leukemia L 1210", "test": "Antitumoral activity on leukemia L 1210 grafted i.p. in mice, sulfoxide and sulfone mixtures (Unit 71 of INSERM)", "assay_type": "in vivo, mice (B6 D2 F1 /IFFA CREDO)", "details": "D1, D5, D9", "description": "This activity was also studied on mice carrying leukemia L 1210 grafted i.p. This experimental tumor is the one most frequently used in the primary screening of cytostatic drugs.\nThese tests were conducted in parallel in two laboratories: at Unit 71 of the Institut National de la Sante et de la Recberche Mediecale (INSERM), ClermontFerrand, and at the Institut de Cancerologie et d' Immunogenetique (ICIG), Villejuif.\nThe antitumoral efficacy of the products according to the invention was compared with that of CNCC.\nOn day D:0, three-month-old male B6 D2 F1 mice received 10^5 cells of the leukemia strain L 1210 by intraperitoneal administration. The animals are divided up into groups of 8 to 10 animals for the control groups and 6 to 8 animals for the treated groups. On days D:1, D:5 and D:9, the animals receive the treatment at different doses by intraperitoneal or intravenous administration. The CNCC is administered as a suspension in olive oil. The products according to the invention are administered in physiological serum. The mortality is recorded every day. The survival median was determined for the treated animals and the control animals. The results are considered to be positive if the index I= [formula] is greater than 125.\nThe value .infin. means that 50% to 100% of the animals have survived to day D:90.\nThe cytostatic activity oi the products according to the invention on leukemia L 1210 was evaluated on B6 D2 F1 /IFFA CREDO mice according to the protocol described previously.\nThe following were administered intraperitoneally (i.p.): the mixture A1 A2 in the following proportions: A1 (70%) and A2 (30%), or the mixture B1 B2 in the same proportions, or CNCC at the following doses: 10 mg/kg, 20 mg/kg, 30 mg/kg, 40 mg/kg and 50 mg/kg. The results are given in Table II and invite the following remarks: […]"}, "[11]": {"test": "Solubility in solvents allowing intravenous administration", "assay_type": "physicochemical", "details": "solvents which allow intravenous administration"}}, "note": "Where two headings read alike, the source gives them in different places.", "data": [{"smiles": "O=NN(CCCl)C(=O)N[C@H]1C(O)O[C@H](CO)[C@@H](O)[C@@H]1O", "note": "(stereo partly shown) [CHLOROZOTOCIN, chlorozotocin]", "values": [{"measurement": "Increase in the survival time (I.L.S.: T/C × 100)", "setting": "[1]; 15 mg/kg i.p.", "value": "N.S."}, {"measurement": "Increase in the survival time (I.L.S.: T/C × 100)", "setting": "[2]; 15 mg/kg i.p.", "value": "N.S."}, {"measurement": "Increase in the survival time (I.L.S.: T/C × 100)", "setting": "[3]; 15 mg/kg i.p.", "value": "N.S."}, {"measurement": "Increase in the survival time (I.L.S.: T/C × 100)", "setting": "[4]; 15 mg/kg i.p.", "value": "N.S."}, {"measurement": "Increase in the survival time (I.L.S.: T/C × 100)", "setting": "[5]; 15 mg/kg i.p.", "value": ".infin. (50% more of the treated animals are cure)"}, {"measurement": "Increase in the survival time (I.L.S.: T/C × 100)", "setting": "[6]; 15 mg/kg i.p.", "value": ".infin. (50% more of the treated animals are cure)"}, {"measurement": "Increase in the survival time (I.L.S.: T/C × 100)", "setting": "[7]; 15 mg/kg i.p.", "value": ".infin. (50% more of the treated animals are cure)"}, {"measurement": "Increase in the survival time (I.L.S.: T/C × 100)", "setting": "[8]; 15 mg/kg i.p.", "value": "N.S."}]}, {"smiles": "O=NN(CCCl)C(=O)NCCSSCCN(N=O)C(=O)NCCCl", "note": "[CNCC, N[N-(2-chloroethyl) N-nitrosocarbamoyl]-N'-[N(2-chloroethyl)carbamoyl] N'-nitrosocystamine]", "values": [{"measurement": "Increase in the survival time (I.L.S.: T/C × 100)", "setting": "[1]; 30 mg/kg i.p.", "value": 185}, {"measurement": "activity against types of tumor (in words)", "setting": "[9]", "value": "active against all the types of tumor listed in Table I, with the exception of fibrosarcoma I.C.I.G"}, {"measurement": "activity compared with the other chloroethylnitrosoureas (in words)", "setting": "[9]", "value": "quantitatively greater than those observed with the other chloroethylnitrosoureas"}, {"measurement": "Increase in the survival time (I.L.S.: T/C × 100)", "setting": "[2]; 30 mg/kg i.p.", "value": ".infin. (50% more of the treated animals are cure)"}, {"measurement": "Increase in the survival time (I.L.S.: T/C × 100)", "setting": "[3]; 30 mg/kg i.p.", "value": ".infin. (50% more of the treated animals are cure)"}, {"measurement": "T/C × 100", "setting": "[10]; 10 mg/kg i.p.", "value": 250}, {"measurement": "number of animals surviving to 90 days", "setting": "[10]; 10 mg/kg i.p.", "value": "0/6"}, {"measurement": "T/C × 100", "setting": "[10]; 20 mg/kg i.p.", "value": ".infin. (50 to 100% of the animals surviving to 90 days)"}, {"measurement": "number of animals surviving to 90 days", "setting": "[10]; 20 mg/kg i.p.", "value": "6/6"}, {"measurement": "T/C × 100", "setting": "[10]; 30 mg/kg i.p.", "value": ".infin. (50 to 100% of the animals surviving to 90 days)"}, {"measurement": "number of animals surviving to 90 days", "setting": "[10]; 30 mg/kg i.p.", "value": "6/6"}, {"measurement": "T/C × 100", "setting": "[10]; 40 mg/kg i.p.", "value": ".infin. (50 to 100% of the animals surviving to 90 days)"}, {"measurement": "number of animals surviving to 90 days", "setting": "[10]; 40 mg/kg i.p.", "value": "3/6"}, {"measurement": "T/C × 100", "setting": "[10]; 50 mg/kg i.p.", "value": 125}, {"measurement": "number of animals surviving to 90 days", "setting": "[10]; 50 mg/kg i.p.", "value": "0/6"}, {"measurement": "solubility (in words)", "setting": "[11]", "value": "insolubility of this compound in the solvents which allow intravenous administration"}, {"measurement": "Increase in the survival time (I.L.S.: T/C × 100)", "setting": "[4]; 30 mg/kg i.p.", "value": 200}, {"measurement": "Increase in the survival time (I.L.S.: T/C × 100)", "setting": "[5]; 30 mg/kg i.p.", "value": "N.S."}, {"measurement": "Increase in the survival time (I.L.S.: T/C × 100)", "setting": "[6]; 30 mg/kg i.p.", "value": ".infin. (50% more of the treated animals are cure)"}, {"measurement": "Increase in the survival time (I.L.S.: T/C × 100)", "setting": "[7]; 30 mg/kg i.p.", "value": "> 254"}, {"measurement": "Increase in the survival time (I.L.S.: T/C × 100)", "setting": "[8]; 30 mg/kg i.p.", "value": 200}]}, {"smiles": "O=NN(CCCl)C(=O)NCCO", "note": "[H.E.C.N.U., 1-(2-hydroxyethyl)-3-(2-chloroethyl) 3-nitrosourea]", "values": [{"measurement": "Increase in the survival time (I.L.S.: T/C × 100)", "setting": "[1]; 10 mg/kg i.p.", "value": 165}, {"measurement": "Increase in the survival time (I.L.S.: T/C × 100)", "setting": "[2]; 10 mg/kg i.p.", "value": ".infin. (50% more of the treated animals are cure)"}, {"measurement": "Increase in the survival time (I.L.S.: T/C × 100)", "setting": "[3]; 10 mg/kg i.p.", "value": ".infin. (50% more of the treated animals are cure)"}, {"measurement": "Increase in the survival time (I.L.S.: T/C × 100)", "setting": "[4]; 10 mg/kg i.p.", "value": 198}, {"measurement": "Increase in the survival time (I.L.S.: T/C × 100)", "setting": "[5]; 10 mg/kg i.p.", "value": "N.S."}, {"measurement": "Increase in the survival time (I.L.S.: T/C × 100)", "setting": "[6]; 10 mg/kg i.p.", "value": ".infin. (50% more of the treated animals are cure)"}, {"measurement": "Increase in the survival time (I.L.S.: T/C × 100)", "setting": "[7]; 10 mg/kg i.p.", "value": 210}, {"measurement": "Increase in the survival time (I.L.S.: T/C × 100)", "setting": "[8]; 10 mg/kg i.p.", "value": 182}]}, {"smiles": "CC1(C)O[C@@H]2[C@@H](COC(=O)c3ccc([N+](=O)[O-])cc3)OC(NC(=O)N(CCCl)N=O)[C@@H]2O1", "note": "(stereo partly drawn) [R.F.C.N.U., 1-(2-chloroethyl)-3-[1'-(5'-pnitrobenzoyl 2', 3'-isopropylidene)alphabeta D-ribofuranosyl]-1-nitrosourea]", "values": [{"measurement": "Increase in the survival time (I.L.S.: T/C × 100)", "setting": "[1]; 20 mg/kg i.p.", "value": "N.S."}, {"measurement": "Increase in the survival time (I.L.S.: T/C × 100)", "setting": "[2]; 20 mg/kg i.p.", "value": "N.S."}, {"measurement": "Increase in the survival time (I.L.S.: T/C × 100)", "setting": "[3]; 20 mg/kg i.p.", "value": 167}, {"measurement": "Increase in the survival time (I.L.S.: T/C × 100)", "setting": "[4]; 20 mg/kg i.p.", "value": 144}, {"measurement": "Increase in the survival time (I.L.S.: T/C × 100)", "setting": "[5]; 20 mg/kg i.p.", "value": ".infin. (50% more of the treated animals are cure)"}, {"measurement": "Increase in the survival time (I.L.S.: T/C × 100)", "setting": "[6]; 20 mg/kg i.p.", "value": "N.S."}, {"measurement": "Increase in the survival time (I.L.S.: T/C × 100)", "setting": "[7]; 20 mg/kg i.p.", "value": "N.S."}, {"measurement": "Increase in the survival time (I.L.S.: T/C × 100)", "setting": "[8]; 20 mg/kg i.p.", "value": "N.S."}]}, {"smiles": "CC(=O)O[C@@H]1[C@H](OC(C)=O)COC(NC(=O)N(CCCl)N=O)[C@@H]1OC(C)=O", "note": "(stereo partly drawn) [R.P.C.N.U., 1-(2-chloroethyl)-3-[(2'-3'-4° trioacetyl)alphabeta D-ribopyrannosyl]-1-nitrosourea]", "values": [{"measurement": "Increase in the survival time (I.L.S.: T/C × 100)", "setting": "[1]; 15 mg/kg i.p.", "value": 134}, {"measurement": "Increase in the survival time (I.L.S.: T/C × 100)", "setting": "[2]; 15 mg/kg i.p.", "value": "N.S."}, {"measurement": "Increase in the survival time (I.L.S.: T/C × 100)", "setting": "[3]; 15 mg/kg i.p.", "value": "N.S."}, {"measurement": "Increase in the survival time (I.L.S.: T/C × 100)", "setting": "[4]; 15 mg/kg i.p.", "value": 151}, {"measurement": "Increase in the survival time (I.L.S.: T/C × 100)", "setting": "[6]; 15 mg/kg i.p.", "value": "N.S."}, {"measurement": "Increase in the survival time (I.L.S.: T/C × 100)", "setting": "[7]; 15 mg/kg i.p.", "value": ".infin. (50% more of the treated animals are cure)"}, {"measurement": "Increase in the survival time (I.L.S.: T/C × 100)", "setting": "[8]; 15 mg/kg i.p.", "value": 127}]}]}
